According to ChEMBL document CHEMBL1132520, “Antimalarial activity of 3-hydroxyalkyl-2-methylene-propionic acid derivatives” (1999):
Calls of active or inactive are those of the source. No cut-off for these calls is given here.

What was measured:
[1] = tested on: Mus musculus; test: In vivo anti-malarial activity against Plasmodium berghei in mice (Mus musculus) at a dose of 160 mg/kg; Active; assay type: functional, organism-based; design: dose 160 mg/kg
[2] = tested on: Mus musculus; test: In vivo anti-malarial activity against Plasmodium berghei in mice (Mus musculus) at a dose of 80 mg/kg; Active; assay type: functional, organism-based; design: dose 80 mg/kg
[3] = tested on: Mus musculus; test: Antimalarial activity against Plasmodium berghei evaluated in terms of mean survival time for mice (Mus musculus) at a dose of 160 mg/kg; assay type: functional
[4] = tested on: Mus musculus; test: Anti-malarial activity against Plasmodium berghei evaluated in terms of mean survival time for mice (Mus musculus) at a dose of 20 mg/kg; assay type: functional
[5] = tested on: Mus musculus; test: Antimalarial activity against Plasmodium berghei evaluated in terms of mean survival time for mice (Mus musculus) at a dose of 40 mg/kg; assay type: functional
[6] = tested on: Mus musculus; test: Antimalarial activity against Plasmodium berghei evaluated in terms of mean survival time for mice (Mus musculus) at a dose of 80 mg/kg; assay type: functional
[7] = tested on: Plasmodium falciparum; test: In vitro inhibition of chloroquine-resistant Plasmodium falciparum at 0.25 uM/well dose at 72 hrs in total parasite growth assay; assay type: functional
[8] = tested on: Plasmodium falciparum; test: In vitro inhibition of chloroquine-resistant Plasmodium falciparum at 0.5 uM/well dose at 72 hrs in total parasite growth assay; assay type: functional
[9] = tested on: Plasmodium falciparum; test: In vitro antimalarial activity for Plasmodium falciparum at 100 uM/well dose at 24 hrs in Schizont maturation assay; assay type: functional
[10] = tested on: Plasmodium falciparum; test: In vitro antimalarial activity for Plasmodium falciparum at 10 uM/well dose at 24 hrs in Schizont maturation assay; assay type: functional
[11] = tested on: Plasmodium falciparum; test: In vitro antimalarial activity for Plasmodium falciparum at 1 uM/well dose at 24 hrs in Schizont maturation assay; assay type: functional
[12] = tested on: Plasmodium falciparum; test: In vitro antimalarial activity for Plasmodium falciparum at 2.5 uM/well dose at 24 hrs in Schizont maturation assay; assay type: functional
[13] = tested on: Plasmodium falciparum; test: In vitro antimalarial activity for Plasmodium falciparum at 20 uM/well dose at 24 hrs in Schizont maturation assay; assay type: functional
[14] = tested on: Plasmodium falciparum; test: In vitro antimalarial activity for chloroquine-resistant Plasmodium falciparum at 50 uM/well dose at 24 hrs in Schizont maturation assay; assay type: functional
[15] = tested on: Plasmodium falciparum; test: In vitro antimalarial activity for chloroquine-resistant Plasmodium falciparum at 5 uM/well dose at 24 hrs in Schizont maturation assay; assay type: functional
[16] = tested on: Plasmodium falciparum; test: In vitro antimalarial activity for Plasmodium falciparum at 500 uM/well dose at 24 hrs in Schizont maturation assay; assay type: functional
[17] = tested on: Plasmodium falciparum; test: In vitro antimalarial activity for Plasmodium falciparum at 50 uM/well dose at 24 hrs in Schizont maturation assay; assay type: functional
[18] = tested on: Plasmodium falciparum; test: In vitro antimalarial activity for Plasmodium falciparum at 5 uM/well dose at 24 hrs in Schizont maturation assay; assay type: functional
[19] = tested on: Plasmodium falciparum; test: In vitro antimalarial activity for chloroquine-resistant Plasmodium falciparum at 0.25 uM/well dose at 24 hrs in Schizont maturation assay; assay type: functional
[20] = tested on: Plasmodium falciparum; test: In vitro antimalarial activity for chloroquine-resistant Plasmodium falciparum at 100 uM/well dose at 24 hrs in Schizont maturation assay; assay type: functional
[21] = tested on: Plasmodium falciparum; test: In vitro antimalarial activity for chloroquine-resistant Plasmodium falciparum at 10 uM/well dose at 24 hrs in Schizont maturation assay; assay type: functional
[22] = tested on: Plasmodium falciparum; test: In vitro antimalarial activity for chloroquine-resistant Plasmodium falciparum at 1 uM/well dose at 24 hrs in Schizont maturation assay; assay type: functional
[23] = tested on: Plasmodium falciparum; test: In vitro antimalarial activity for chloroquine-resistant Plasmodium falciparum at 2.5 uM/well dose at 24 hrs in Schizont maturation assay; assay type: functional
[24] = tested on: Plasmodium falciparum; test: In vitro antimalarial activity for chloroquine-resistant Plasmodium falciparum at 20 uM/well dose at 24 hrs in Schizont maturation assay; assay type: functional
[25] = tested on: Plasmodium falciparum; test: In vitro inhibition of Plasmodium falciparum at 50 uM/well dose at 72 hrs in total parasite growth assay; assay type: functional
[26] = tested on: Plasmodium falciparum; test: In vitro inhibition of Plasmodium falciparum at 5 uM/well dose at 72 hrs in total parasite growth assay; assay type: functional
[27] = tested on: Plasmodium falciparum; test: In vitro inhibition of Plasmodium falciparum at 0.25 uM/well dose at 72 hrs in total parasite growth assay; assay type: functional
[28] = tested on: Plasmodium falciparum; test: In vitro inhibition of Plasmodium falciparum at 0.5 uM/well dose at 72 hrs in total parasite growth assay; assay type: functional
[29] = tested on: Plasmodium falciparum; test: In vitro inhibition of Plasmodium falciparum at 2.5 uM/well dose at 72 hrs in total parasite growth assay; assay type: functional
[30] = tested on: Plasmodium falciparum; test: In vitro inhibition of Plasmodium falciparum at 20 uM/well dose at 72 hrs in total parasite growth assay; assay type: functional
[31] = tested on: Plasmodium falciparum; test: In vitro inhibition of Plasmodium falciparum at 25 uM/well dose at 72 hrs in total parasite growth assay; assay type: functional
[32] = tested on: Plasmodium falciparum; test: In vitro inhibition of Plasmodium falciparum at 1.0 uM/well dose at 72 hrs in total parasite growth assay; assay type: functional
[33] = tested on: Plasmodium falciparum; test: In vitro inhibition of Plasmodium falciparum at 100 uM/well dose at 72 hrs in total parasite growth assay; assay type: functional
[34] = tested on: Plasmodium falciparum; test: In vitro inhibition of Plasmodium falciparum at 10 uM/well dose at 72 hrs in total parasite growth assay; assay type: functional
[35] = tested on: Plasmodium falciparum; test: In vitro antimalarial activity for Plasmodium falciparum at 0.50 uM/well dose at 24 hrs in Schizont maturation assay; assay type: functional
[36] = tested on: Plasmodium falciparum; test: In vitro inhibition of chloroquine-resistant Plasmodium falciparum at 1.0 uM/well dose at 72 hrs in total parasite growth assay; assay type: functional
[37] = tested on: Plasmodium falciparum; test: In vitro antimalarial activity for Plasmodium falciparum at 0.10 uM/well dose at 24 hrs in Schizont maturation assay; assay type: functional
[38] = tested on: Plasmodium falciparum; test: In vitro antimalarial activity for chloroquine-resistant Plasmodium falciparum at 0.10 uM/well dose at 24 hrs in Schizont maturation assay; assay type: functional
[39] = tested on: Plasmodium falciparum; test: In vitro antimalarial activity for Plasmodium falciparum at 0.25 uM/well dose at 24 hrs in Schizont maturation assay; assay type: functional
[40] = tested on: Plasmodium falciparum; test: In vitro antimalarial activity for chloroquine-resistant Plasmodium falciparum at 0.5 uM/well dose at 24 hrs in Schizont maturation assay; assay type: functional

| SMILES | Activity [1] | Mean survival time [3] [days] | Mean survival time [4] [days] | Mean survival time [5] [days] | Mean survival time [6] [days] | PGI [7] [%] | PGI [8] [%] | inhibition at 100 µM [9] [%] | inhibition at 10 µM [10] [%] | inhibition at 1 µM [11] [%] | inhibition at 2.5 µM [12] [%] | inhibition at 20 µM [13] [%] | inhibition at 50 µM [14] [%] | inhibition at 5 µM [15] [%] | inhibition at 500 µM [16] [%] | inhibition at 50 µM [17] [%] | inhibition at 5 µM [18] [%] | inhibition at 0.25 µM [19] [%] | inhibition at 100 µM [20] [%] | inhibition at 10 µM [21] [%] | further results |
| --- | --- | --- | --- | --- | --- | --- | --- | --- | --- | --- | --- | --- | --- | --- | --- | --- | --- | --- | --- | --- | --- |
| C=C(C#N)C(O)c1ccc([N+](=O)[O-])cc1 (centres undefined) | Active | 14.4 | 9.4 | 11.8 | 12.8 | 73 | 82 | 100 | 100 | 75.2 | 84 | 100 | 100 | 100 | 100 | 100 | 100 | 58 | 100 | 100 | Activity [2]: Active; inhibition at 1 µM [22]: 86%; inhibition at 2.5 µM [23]: 100%; inhibition at 20 µM [24]: 100%; PGI [25]: 100%; PGI [26]: 100%; PGI [27]: 83%; PGI [28]: 92%; PGI [29]: 100%; PGI [30]: 100%; PGI [31]: 100%; PGI [32]: 100%; PGI [33]: 100%; PGI [34]: 100%; inhibition at 0.5 µM [35]: 68%; PGI [36]: 94%; inhibition at 0.1 µM [37]: 41.2%; inhibition at 0.1 µM [38]: 47.7%; inhibition at 0.25 µM [39]: 56.4%; inhibition at 0.5 µM [40]: 75% |
| C=C(C#N)C(O)c1cc(OC)c(OC)c(OC)c1 (centres undefined) | Active | 12.4 | 6 | 7.6 | 10.4 | 70 | 81 | 100 | 100 | 64 | 76.5 | 100 | 100 | 81 | 100 | 100 | 82.4 | 30 | 100 | 100 | inhibition at 1 µM [22]: 65%; inhibition at 2.5 µM [23]: 69%; inhibition at 20 µM [24]: 100%; PGI [25]: 100%; PGI [26]: 100%; PGI [27]: 73%; PGI [28]: 86%; PGI [29]: 100%; PGI [30]: 100%; PGI [31]: 100%; PGI [32]: 94%; PGI [33]: 100%; PGI [34]: 100%; inhibition at 0.5 µM [35]: 42.4%; PGI [36]: 90%; inhibition at 0.1 µM [37]: 0%; inhibition at 0.1 µM [38]: 4.2%; inhibition at 0.25 µM [39]: 30%; inhibition at 0.5 µM [40]: 48.6% |
